Experimental data from article PMC8624998, “Synthesis and Antiproliferative Evaluation of 3-Chloroazetidin-2-ones with Antimitotic Activity: Heterocyclic Bridged Analogues of Combretastatin A-4” (Pharmaceuticals, 2021).
Where two headings read alike, the source gives them in different places.

How the values were obtained:
MCF-7 cells [1] = assay: Lactate dehydrogenase (LDH) assay for cytotoxicity; assay type: cell-based; conditions: Homo sapiens, MCF7; MCF-7, compound concentration 10 μM, 24 h; read-out: Lactate Dehydrogenase assay: % cell lysis (cell death)
Description: The toxicity and selectivity of 10n towards normal cells was investigated in the non-tumourigenic cell line HEK-293T (normal human epithelial embryonic kidney cells). […] The cytotoxic effect of selected 3-chloro-β-lactams 10e, 10f, 10i, 10n and 3,3-dichloro-β-lactams 11e and 11n in MCF-7 cells was initially determined using the lactate dehydrogenase (LDH) assay.
The cytotoxicity of selected compounds was determined using the CytoTox 96 non-radioactive cytotoxicity assay (Promega Corporation, Madison, WI, USA). Briefly, MCF-7 cells were seeded in a 96-well plate (200 μL per well), at a density of 2.5 × 10^4 cells/mL, and incubated for 24 h. The cells were then treated with selected β-lactam compounds as described above for the cell viability assay. […] Supernatant (50 μL) was removed from each well to a 96-well plate. Reconstituted ‘CytoTox 96® Reagent (50 μL) was added to each well and the plate was placed in the dark at 20 °C for 30 min. ‘Stop solution’ (50 μL) was added to each well and the samples were analysed at 490 nm using a Dynatech MR5000 plate reader. The percentage cell death at 10 μM was calculated.

MCF-7 cells [2] = conditions: MCF-7, 72 h; previously reported compounds, footnote g; cited from earlier work
MDA-MB-231 cells = assay: Cell viability assay, antiproliferative activity; assay type: cell-based; conditions: Homo sapiens; MDA-MB-231, 72 h; 10e and 11n results from NCI; read-out: Antiproliferative Activity IC50 MDA-MB-231, 72 h
Description: Selected β-lactam compounds were next evaluated in the triple negative cell line MDA-MB-231 (Table 4). […] These cancers are difficult to treat since they are generally not responsive to hormone therapies such as the selective oestrogen receptor modulator (SERM) tamoxifen, or aromatase inhibitors such as anastrozole, or to the monoclonal antibody Herceptin, which targets the HER2 receptor. There are fewer treatment options available for TNBC compared with ER+, PR+ and HER2+ breast cancers and the prognosis is poorer. […]. The human breast carcinoma cell line MCF-7 was purchased from the European Collection of Animal Cell Cultures (ECACC). Triple negative breast cancer Hs578T cells and its invasive variant Hs578Ts(i)8 were a kind gift from Dr. Susan McDonnell, School of Chemical and Bioprocess Engineering, University College Dublin. U266 cells were a gift from Dr. Tony McElligott, School of Medicine, St James’s Hospital, Trinity College Dublin. HT-29 cells were purchased from the European Collection of Cell Cultures (originating from a human adenocarcinoma of the colon). The human breast carcinoma cell line MDA-MB-231 and the HL-60 cells derived from a patient with acute myeloid leukaemia were both obtained from ECACC (Salisbury, UK). The SW-480 cells were a kind gift from Dr. Brian Flood, School of Biochemistry and Immunology, Trinity College Dublin. HEK-293T (normal epithelial embryonic kidney cells) were cultured in Dulbecco’s Modified Eagle’s Medium (DMEM) with GlutaMAXTM-I in the absence of non-essential amino acids. Human breast cancer MCF-7 cells and multiple myeloma U266 cells were cultured in Minimum Essential Media (MEM) with GlutaMAX™-I, supplemented with 1% (v/v) non-essential amino acids, 10% 2(v/v) foetal bovine serum (FBS) and 1% (v/v) penicillin/streptomycin 5000 U/mL. MDA-MB-231 cells were maintained in DMEM supplemented with 10% (v/v) foetal bovine serum, 2 mM L-glutamine and 100 μg/mL penicillin/streptomycin (complete medium). Colon cancer HT-29 and SW-480 and triple negative breast cancer Hs578T and its invasive variant Hs578T8i were cultured in DMEM with GlutaMAX™-I, with the same supplement in the absence of non-essential amino acids. Leukaemia HL-60 cancer cells were cultured in Roswell Park Memorial Institute Media (RPMI-1640) with GlutaMAX™-I, supplemented with 10% FCS media, and 100 μg/mL penicillin/streptomycin as above. Cell numbers were monitored using a haemocytometer. Cell culture flasks were incubated in a humidified incubator (5% CO2/95% air) at 37 °C. All cell lines were sub-cultured three times per week with trypsinisation using TrypLE Express (1X) required for adherent cell lines.
(§1) . All stock solutions and serial dilution in ethanol/DMSO were stored at -20 °C. All cells were seeded at a density of 2.5 × 10^4 cells/mL in a 96-well plate (200 μL per well). The cells were incubated in a […] atmosphere at 37 °C for 24 h, then treated with test compound (2 μL of stock solutions per 200-microlitre well) in ethanol to obtain a concentration range of 1 nM–200 μM for the study. The plates were then re-incubated for a further 72 h. Control wells contained an equivalent volume of the vehicle ethanol or DMSO (1% v/v). MTT cell viability assay: The culture medium was removed, and the cells were washed with phosphate buffered saline (PBS, […]). MTT (dissolved in PBS, […]) was added to obtain a final concentration of MTT (1 mg/mL). Cells were incubated at 37 °C for 3 h in the dark. Solubilisation was commenced by the addition of DMSO ([…]) and the cells were maintained at 20 °C in the dark for 20 min before reading the absorbance to ensure complete colour diffusion. The absorbance value of control cells (no added compound) was set to 100% cell viability and absorbance versus cell density per well was determined to assess cell viability using Graph-Pad Prism software. […]

MCF-7 cells [3] = assay: Cell viability assay (MTT/AlamarBlue), antiproliferative activity; assay type: cell-based, human
Description: […]. The introduction of the halogen substituent at C-3 was examined in an effort to investigate the effect on the activity of this substituent, and subsequently optimising the cytotoxic effects against MCF-7 human breast cancer cells.
(§2) The human breast carcinoma cell line MCF-7 was purchased from the European Collection of Animal Cell Cultures (ECACC). Triple negative breast cancer Hs578T cells and its invasive variant Hs578Ts(i)8 were a kind gift from Dr. Susan McDonnell, School of Chemical and Bioprocess Engineering, University College Dublin. U266 cells were a gift from Dr. Tony McElligott, School of Medicine, St James’s Hospital, Trinity College Dublin. HT-29 cells were purchased from the European Collection of Cell Cultures (originating from a human adenocarcinoma of the colon). The human breast carcinoma cell line MDA-MB-231 and the HL-60 cells derived from a patient with acute myeloid leukaemia were both obtained from ECACC (Salisbury, UK). The SW-480 cells were a kind gift from Dr. Brian Flood, School of Biochemistry and Immunology, Trinity College Dublin. HEK-293T (normal epithelial embryonic kidney cells) were cultured in Dulbecco’s Modified Eagle’s Medium (DMEM) with GlutaMAXTM-I in the absence of non-essential amino acids. Human breast cancer MCF-7 cells and multiple myeloma U266 cells were cultured in Minimum Essential Media (MEM) with GlutaMAX™-I, supplemented with 1% (v/v) non-essential amino acids, 10% 2(v/v) foetal bovine serum (FBS) and 1% (v/v) penicillin/streptomycin 5000 U/mL. MDA-MB-231 cells were maintained in DMEM supplemented with 10% (v/v) foetal bovine serum, 2 mM L-glutamine and 100 μg/mL penicillin/streptomycin (complete medium). Colon cancer HT-29 and SW-480 and triple negative breast cancer Hs578T and its invasive variant Hs578T8i were cultured in DMEM with GlutaMAX™-I, with the same supplement in the absence of non-essential amino acids. Leukaemia HL-60 cancer cells were cultured in Roswell Park Memorial Institute Media (RPMI-1640) with GlutaMAX™-I, supplemented with 10% FCS media, and 100 μg/mL penicillin/streptomycin as above. Cell numbers were monitored using a haemocytometer. Cell culture flasks were incubated in a humidified incubator (5% CO2/95% air) at 37 °C. All cell lines were sub-cultured three times per week with trypsinisation using TrypLE Express (1X) required for adherent cell lines.
as §1, with “software. AlamarBlue cell viability assay: Cells were seeded in 96-well plates (e.g., MCF-7, 5 × 10^3 cells/well) and (HT-29 cells, 1 × 10^3 cells/well) and (HL-60 cells, 1 × 10^4 cells/well) with a total volume per well of 200 µL. After 24 h, cells were treated in triplicate with serial dilutions of CA-4 or β-lactam analogues (0.001–100 μM), medium alone or vehicle (1% ethanol (v/v)).” for “software.”

SW480 cells = assay: Cell viability assay, antiproliferative activity; assay type: cell-based, human; conditions: SW480, 10 μM
Description: […]. The corresponding values for 10e in these cell lines were 161 nM (HL-60), 55 nM (SW480) and 135 nM (HT-29). […] […]. SW480 colon cells expressed low levels of the UDP-glucuronosyltransferase (UGT) protein compared to expression levels in HT-29 cells. […] […].
as §2
as §1, with “software. AlamarBlue cell viability assay: Cells were seeded in 96-well plates (e.g., MCF-7, 5 × 10^3 cells/well) and (HT-29 cells, 1 × 10^3 cells/well) and (HL-60 cells, 1 × 10^4 cells/well) with a total volume per well of 200 µL. After 24 h, cells were treated in triplicate with serial dilutions of CA-4 or β-lactam analogues (0.001–100 μM), medium alone or vehicle (1% ethanol (v/v)).” for “software.”

[4] = HPLC stability study in phosphate buffers; assay type: physicochemical; conditions: phosphate buffer
Description: HPLC stability studies at three different pH systems were performed on a representative compound 16a to determine the stability at acidic pH 4, pH 7.4 and basic pH 9 (acid pH found in the stomach, basic found in the intestine and pH 7.4 in the plasma).
A stability study for compound 16a was performed by analytical HPLC using a Symmetry® column (C18, […], 4.6 × 150 mm), a Waters 2487 Dual Wavelength Absorbance detector, a Waters 1525 binary HPLC pump and a Waters 717 plus Autosampler (Waters Corporation, Milford, MA, USA). Samples were detected at λ 254 nm using acetonitrile (70%)/water (30%) as the mobile phase over 15 min and a flow rate of 1 mL/min. A stock solution of the compound was prepared using 10 mg of compound 16a in 10 mL of mobile phase (1 mg/mL). A calibration curve was prepared using a solution of 0.5, 0.25, 0.125, 0.0625, 0.03125, 0.015625 and 0.0078 mg/mL. (i) Stability of 16a in phosphate buffers: Phosphate buffers at pH values 4, 7.4 and 9 were prepared according to the British Pharmacopoeia 2020. A total of 300 µL of stock solution (1 mg/mL ACN) for 16a was added to a vial containing 9.7 mL of buffer, mixed and pre-heated to 37°C. A total of 1 mL of the solution was added to the HPLC glass vial and 10 µL was injected, followed by hourly injections for a 24-h period. Samples were withdrawn and analysed at time intervals of t = 0 min, 5 min, 30 min, 60 min and hourly for 24 h. The analysis was performed in triplicate. (ii) Thermal stability: 16a (1 mg) was placed in a vial (for the solution, 1 mL of stock solution was used) at 60 °C for 4 h on a heating block. The sample was then cooled, diluted with ACN and analysed using HPLC. (iii) Photostability study: A solution of compound 16a (1 mL of the stock solution) was placed in a vial and exposed to UV light for 4 h. The sample was directly analysed using HPLC. […] Once neutralised, the samples were analysed using HPLC. […] Once neutralised, the samples were analysed using HPLC. […] A sample from the vial was taken every hour over 4 h and analysed using HPLC.

COc1ccc(C2N(c3cc(OC)c(OC)c(OC)c3)C(=O)C2(Cl)Cl)cc1 (stereo not drawn) [Compound 11e]
cytotoxicity at 10 µM (MCF-7 cells [1]): 10%
IC50 (MCF-7 cells [2]): 119 ± 12 nM
IC50 (MDA-MB-231 cells): 297 ± 40 nM

COc1ccc(C2C(Br)C(=O)N2c2cc(OC)c(OC)c(OC)c2)cc1 (stereo not drawn) [Compound 16a, 3-Bromo-4-(4-methoxyphenyl)-1-(3,4,5-trimethoxyphenyl)azetidin-2-one]
IC50 (MCF-7 cells [3]; Homo sapiens, MCF7, 72 h, MCF-7, 72 h, read-out: IC50 (MCF-7, 72 h)): 579 ± 30 nM
fold decrease in activity vs corresponding 3-chloro compound 10e (MCF-7 cells [3]; MCF-7 IC50 ratio): 17 fold
SW480 inhibition of cell viability (SW480 cells): 52%
half-life at 0.03 mg/mL ([4]; buffer pH 4, 37°C): 18 h
half-life at 0.03 mg/mL ([4]; buffer pH 7.4, 37°C): 22 h
half-life at 0.03 mg/mL ([4]; buffer pH 9, 37°C): 20 h
